Experimental data reported in patent US20090004660A1, “METHOD FOR DETECTING NEUROBLASTOMA AND ITS MALIGNANCY AND METHOD FOR SUPPRESSING THE SAME” (priority 2007, published 2009).
“Also recorded” adds a separate entry of the source.

Assays:
Format in all cases: cell-based, human
PTGER2 gene = test: RT-PCR of PTGER2 gene expression in treated neuroblastoma cell lines lacking PTGER2 expression
Protocol: Moreover, in order to investigate whether or not the lowered expression of the PTGER2 gene was due to DNA methylation, neuroblastoma cell lines lacking expression of the PTGER2 gene were used and treated with 1 μM or 5 μM of 5-aza-dCyd, a demethylating reagent, for 5 days and/or 100 ng/ml of TSA, a deacetylation inhibitor, for 12 hours. RNA was extracted from each cell line and the PTGER2 gene expression thereof was examined by RT-PCR (FIG. 1C).

GOTO and SJ-N-CG cells = test: WST cell viability assay in neuroblastoma cell lines; conditions: PTGER2 gene-nonexpressing cell lines (GOTO, SJ-N-CG); 0.01 mM, 0.1 mM, 1 mM for 72 hours
Protocol: Since the PTGER2 protein and G protein are coupled to be associated with increased intracellular cAMP concentration (Narumiya, et al., Physiol Rev, 79, 1193-1226, 1999), the association between intracellular cAMP concentration and proliferation of neuroblastoma was investigated. First, neuroblastoma cell lines lacking expression of the PTGER2 gene (GOTO and SJ-N-CG) and neuroblastoma cell lines expressing the PTGER2 gene (SJ-N-KP and KP-N-SIFA) were cultured in a growth medium with 0 mM, 0.01 mM, 0.1 mM, and 1 mM of 8-Br-cAMP for 72 hours. Then, the viability of these cells was detected by WST assay (FIG. 5).

PTGDR gene = test: RT-PCR of PTGDR gene expression in treated neuroblastoma cell lines; conditions: three types of neuroblastoma cell lines, treatment with 5-aza-dCyd
[1] = test system: CpG island of the PTGER2 gene; test: Methylation status of the PTGER2 CpG island in neuroblastoma cells cultured with a demethylating agent; conditions: neuroblastoma cells cultured in the presence of 5-aza-dC

CC(/C=C/C(=O)NO)=C\[C@@H](C)C(=O)c1ccc(N(C)C)cc1 [TSA, Trichostatin A]
PTGER2 gene expression (PTGER2 gene; 100 ng/ml TSA alone for 12 hours): restored; also recorded: increased level

Nc1ncnc2c1nc(Br)n2[C@@H]1O[C@@H]2COP(=O)(O)O[C@H]2[C@H]1O [8-Br-cAMP]
proliferation (cell viability by WST assay) (GOTO and SJ-N-CG cells): suppressed

Nc1ncn([C@H]2C[C@H](O)[C@@H](CO)O2)c(=O)n1 [5-aza-dCyd, 5-azadeoxycytidine]
PTGDR gene expression (PTGDR gene): restored | demethylation of the CpG island of the PTGER2 gene [1]: successfully demethylated | PTGER2 gene expression (PTGER2 gene; 1 μM or 5 μM 5-aza-dCyd alone for 5 days): restored | PTGER2 gene expression (PTGER2 gene; 1 μM or 5 μM 5-aza-dCyd alone for 5 days, listed as 5-aza-dC): successfully restored
